Data from US20260325473A1, “N-Beta-Hydroxybutyryl-Amino Acids and Related Compositions and Methods” (The Board of Trustees of the Leland Stanford Junior …, priority 2023, published 2026).

Legend:
CNDP2 = molecular target: T1, CNDP2 (Mus musculus, UniProt Q9D1A2); assay type: in vivo; details: ketone ester drink or one week of ketogenic diet
T1 sequence (Q9D1A2 1-475): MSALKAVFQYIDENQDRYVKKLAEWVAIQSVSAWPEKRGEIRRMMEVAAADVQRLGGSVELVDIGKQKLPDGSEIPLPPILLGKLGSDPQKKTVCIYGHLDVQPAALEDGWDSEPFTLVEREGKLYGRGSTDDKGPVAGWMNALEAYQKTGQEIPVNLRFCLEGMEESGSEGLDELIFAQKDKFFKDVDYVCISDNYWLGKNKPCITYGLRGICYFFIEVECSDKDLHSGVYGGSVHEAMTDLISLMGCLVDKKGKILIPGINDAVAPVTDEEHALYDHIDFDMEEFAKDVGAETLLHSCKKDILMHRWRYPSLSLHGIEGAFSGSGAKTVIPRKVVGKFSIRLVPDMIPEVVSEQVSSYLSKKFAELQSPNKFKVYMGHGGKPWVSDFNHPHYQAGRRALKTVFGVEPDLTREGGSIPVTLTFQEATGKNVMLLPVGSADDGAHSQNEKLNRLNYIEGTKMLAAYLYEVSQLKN
Method: (§1) Preparation of plasma samples for LC-MS analysis. Plasma was collected from mice via a submandibular bleed into lithium heparin tubes (BD, 365985) and immediately transferred onto ice. The blood was centrifuged at 4° C. at 5000 rpm for 5 min and the top layer of plasma was aliquoted and frozen at −80 °C. To extract polar metabolites from plasma for LC-MS analysis, 150 μl of a 2:1 mixture of acetonitrile/methanol was added to 50 μl of plasma. The mixture was centrifuged at 4° C. for 10 min at 15,000 rpm and the supernatant was transferred to a LC-MS vial.
(§2) Targeted metabolomics. Targeted measurements were performed using an Agilent 6470 triple quadrupole LC-MS instrument. MS analysis was performed using AJS in negative mode. […] Quantification of the endogenous metabolite concentrations were performed by generating a standard curve with known concentrations of each metabolite. Metabolite standards were analyzed alongside the plasma samples using the same targeted triple quadrupole LC/MS method. […] The dilution of the plasma during the sample preparation was also taken into account for the quantification. […]

[1] = Metabolite quantitation in mouse plasma (QQQ-LC/MS); assay type: in vivo; details: 1 week ketogenic diet, 24 h fast, or ketone ester drink 3 g/kg
Method: as §1
(§3) Targeted metabolomics. Targeted measurements were performed using an Agilent 6470 triple quadrupole LC-MS instrument. MS analysis was performed using AJS in negative mode. The AJS source parameters were set as follows: the dry gas temperature was set at 250° C. with a gas flow of 12 l/min and the nebulizer pressure at 25 psi; the sheath gas temperature was set to 300° C. with the sheath gas flow set at 12 l/min; and the capillary voltage was set to 3,500 V. Separation of polar metabolites was performed as described above in the ‘Untargeted measurements of metabolites by LC-MS’ section. Multiple reaction monitoring was performed for the indicated metabolites with the listed dwell times, fragmentor voltage, collision energies, cell accelerator voltages and polarities. Quantification of the endogenous metabolite concentrations were performed by generating a standard curve with known concentrations of each metabolite. Metabolite standards were analyzed alongside the plasma samples using the same targeted triple quadrupole LC/MS method. A calibration standard curve generated from the metabolite standard concentrations and total peak areas were used to calculate the concentrations of each endogenous metabolite. The dilution of the plasma during the sample preparation was also taken into account for the quantification.

[2] = Human ketone ester supplementation study, plasma metabolites; assay type: in vivo; details: 0.3 g/kg ketone ester, 60 min
Method: as §3
Human ketone ester supplementation study. Following screening, eligible subjects participated in a randomized, counter-balanced, double-blind, placebo-controlled crossover trial comparing BHB supplementation versus placebo, separated by a minimum of 2 days (ClinicalTrials.gov ID NCT04194450). Pre-menopausal women were tested in the follicular phase (days 3-9). Participants were asked to refrain from structured exercise and alcohol, limit physical activity, and follow a standardized diet (~50% carbohydrate, ~30% fat, ~20% protein) on the day before each trial. After refraining from medication use for 24 hours, participants reported to the Exercise, Metabolism and Inflammation Laboratory at the University of British Columbia-Okanagan in an overnight fasted state. Anthropometric measurements were obtained prior to insertion of an indwelling intravenous catheter into the antecubital vein for repeated blood sampling. Blood was collected into EDTA tubes (BD, 367863) and immediately centrifuged at 2000 rpm for 15 min and the top layer of plasma was aliquoted and frozen at −80 °C. After baseline (0) blood sample collection, the oral BHB supplement or placebo was consumed in liquid form (~30-65 mL). The BHB supplement (H.V.M.N®, USA) in the form of the ketone monoester (R)-3-hydroxybutyl (R)-3-hydroxybutyrate (AG®, TDeltaS, Oxford, UK) contained 0.4 g mL-1 BHB, natural flavoring, and <2% stevia leaf extract. The taste-matched placebo drink contained the same natural flavoring as the ketone supplement, stevia leaf extract, 5 mL of Bittrex stock (0.005 g of denatonium benzoate powder in 40 ml of water) and 1.5 mL of arrowroot stock (2 g of arrowroot powder in 50 ml of water) to match the bitter flavor and viscosity of the ketone monoester. Supplements were dispensed into opaque 80 ml bottles with volume calculated for 0.3 g BHB/kg body weight and labelled either A or B by a third-party researcher. Blinding was maintained until completion of data collection and analyses.

HMGCL [3] = details: fasting (24 h) or ketogenic diet (2 days); Goldberg et al.; cited from earlier work
[4] = Keto-Med study, plasma metabolites; assay type: in vivo; details: human; 4 weeks WFKD vs baseline
Method: as §3
Keto-Med study. Keto-Med was a single-site, randomized, crossover, interventional trial comparing 2 metabolically distinct diets (well-formulated ketogenic diet, WFKD; and Mediterranean-plus diet, Med-Plus) among individuals with prediabetes and T2DM. Forty participants aged ≥18 years with prediabetes or T2DM followed the WFKD and the Med-Plus for 12 weeks each, in random order. Participants were randomly assigned into 1 of 2 different diet sequences: WFKD for 12 weeks (phase 1) and then the Med-Plus for 12 weeks (phase 2), or the opposite order. Ad libitum intake was advised, and participants were guided to follow 2 sets of dietary guidelines that shared 3 important similarities (incorporating nonstarchy vegetables and avoiding added sugars and refined grains) and 3 important differences (incorporating compared with avoiding legumes, fruits, and whole, intact grains). During the WFKD phase, participants were counseled to sustain nutritional ketosis by limiting carbohydrates to 20-50 g/day and keeping proteins to ~1.5 g/kg ideal body weight/day, with the remaining kcals coming from fats. Participants were also instructed to consume >3 servings/day of nonstarchy vegetables and maintain adequate mineral and fluid intake for the ketogenic state (sodium, 3-5 g/day; potassium, 3-4 g/day). […]

HMGCL [5] = assay: Plasma metabolites in Alb-Hmgcl (-/-) mice; assay type: in vivo, mouse; details: fasting or ketogenic diet
Method: as §1, §2

[6] = tested on: mouse tissue lysate proteins (brain, heart, quadriceps, liver); assay: X-Phe photoprobe crosslinking in mouse tissue lysates, in-gel fluorescence; assay type: binding; details: 100 μM, UV crosslinking
Method: In vitro crosslinking studies of X-Phe photoprobe. Tissues were collected from wild type C57BL/6J and homogenized using a bead blaster in PBS. The protein homogenate was filtered through a 40 μm strainer to remove any un-homogenized tissue and the lysate diluted to 2 mg/ml. Tissue lysate was incubated with 100 μM of the photoprobe and incubated on ice for 10 minutes protected from light. Reactions were then put under UV for 1 min on a UV Stratalinker. A TAMRA click reaction was performed by adding the following reagents to the indicated final concentrations: […], 1 mM CuSO4, 1 mM TCEP (freshly prepared), 25 μM TAMRA-N3. Reactions were allowed to proceed for 1 hour at room temp, protected from light. Loading buffer was added to the reactions, boiled for 10 minutes and run down a protein gel. The gel was imaged prior to staining with a coomassie dye.

SMILES: CC(O)CC(=O)O (stereo not drawn) [BHB, beta-hydroxybutyrate, reference compound]
- plasma BHB in CNDP2-KO vs WT mice (CNDP2): unchanged
- plasma BHB levels [1]: elevated by each of these conditions
- plasma BHB after ketone ester drink [2]: dramatically elevated
- circulating BHB levels in Alb-Hmgcl (-/-) mice (HMGCL [3]): reductions in circulating BHB levels
- elevation of plasma BHB on WFKD [4]: 5 fold

SMILES: C[C@@H](O)CC(=O)N1CCC[C@H]1C(=O)O [Keto-Pro]
- plasma keto amino acids in CNDP2-KO vs wild type mice (CNDP2): unaltered
- plasma level in Alb-Hmgcl (-/-) mice (HMGCL [5]): reduced in Alb-Hmgcl (−/−) mice

SMILES: C#CCCC(=O)N[C@@H](Cc1ccc(N=[N+]=[N-])cc1)C(=O)O [X-Phe photoprobe]
- labelling of tissue proteins by photoprobe [6]: directly interacts with protein targets in a tissue-specific manner
